A word on the MIC: it is the lowest concentration found to suppress growth.

The nature of test [1]: ABTS radical cation scavenging. As to conditions: compound 0.1 mM. As for the experimental part: S1 Antioxidant biological assay
The antioxidant activity of the compounds was evaluated via their ability to scavenge in […]
vitro free radicals such as DPPH and ABTS and to reduce H2O2. […]
S1.2 Assay of radical cation ABTS–scavenging activity
The ABTS assay was performed to determine the activity of the compounds to scavenge the […]
radical cation ABTS. Initially, a water solution of ABTS was prepared (2 mM). ABTS radical cation […]
(ABTS+·) was produced by the reaction of ABTS stock solution with potassium persulfate (0.17 […]
mM) and the mixture was stored in the dark at room temperature for 12–16 h before its use. The […]
ABTS was oxidized incompletely because the stoichiometric reaction ratio of ABTS and potassium […]
persulfate is 1:0.5. The absorbance became maximal and stable only after more than 6 h of reaction […]
although the oxidation of the ABTS started immediately. The radical was stable in this form for […]
more than 2 days when allowed to stand in the dark at room temperature. Afterwards, the ABTS+· […]
solution was diluted in ethanol to an absorbance of 0.70 at 734 nm and 10 μL of diluted compounds or standards (0.1 mM) in DMSO were added. The absorbance was recorded out exactly 1 min after […]
initial mixing [S1]. The ABTS radical scavenging activity was expressed as the percentage inhibition of the absorbance of the initial ABTS solution (ABTS%). […]

The test system of test [2] is Xanthomonas campestris ATCC 1395. Put plainly: MIC determination. The class given is cell-based. As to conditions: Xanthomonas campestris, ATCC1395, 24 h, read-out: MIC X. campestris. Here is the method: (§1) S2 Antibacterial activity
(§2) The antimicrobial activity of the compounds was evaluated by determining their respective MIC values towards two Gram–(–) (Escherichia coli NCTC 29212 (E. coli) and Xanthomonas campestris ATCC 1395 (X. campestris)) and two Gram–(+) (Staphylococcus aureus ATCC 6538 (S. aureus) and Bacillus subtilis ATCC 6633 (B. subtilis)) bacterial species. Cultures of these microbial strains were grown on a rich selective agar medium and stored at 4°C. The selective media used were Nutrient Agar or Broth for B. subtilis and S. aureus, Yeast Mold Agar or Broth for X. campestris and Luria Agar or Broth for E. coli. Cells picked from the surface of the stored cultures were used to initiate liquid pre–cultures of the same selective medium at an initial turbidity of roughly 1 McFarland unit. Pre–cultures were incubated for 24 h in a rotary shaking incubator and subsequently they were used to inoculate the test cultures used for the determination of MIC at an initial turbidity of 0.5 McFarland units. The test cultures consisted of Mueller –Hinton broth (Deben Diagnostics Ltd) containing different concentrations of the compounds.
(§3) Different concentrations were achieved as follows: the compounds were freshly dissolved in DMSO to a concentration of 1 mg mL–1 and they were diluted with DMSO, using the method of progressive double dilution. Therefore, working solutions with decreasing concentrations of the compounds under investigation were achieved. The working solutions were subsequently diluted to the final desired concentration by addition to the growth medium at a proportion of 2:98. MIC values were determined as the lowest concentrations of the tested compounds that inhibited visible growth of each respective organism after a 24 h incubation [ S3]. Bacterial growth was determined by measuring the turbidity of appropriately diluted cultures at 600 nm with reference to equally diluted sterile growth medium and the inhibition achieved was calculated by comparing the turbidity of each culture to the average of the turbidity of three non–inhibited cultures. All test cultures were grown in triplicates and for the determination of MIC, growth had to be inhibited in at least two cultures of the triplicate. Incubation temperature at all stages was 37°C except for X. campestris that was cultivated at 28°C [S4].

For test [3], the system named is Bacillus subtilis ATCC 6633. Put plainly: MIC determination. The format is cell-based. As to conditions: Bacillus subtilis, ATCC6633, 24 h, read-out: MIC B. subtilis. As for the experimental part:
as §1, §2, §3

Test [4] concerns Escherichia coli NCTC 29212. The experiment in a line: MIC determination. The format is cell-based. As to conditions: Escherichia coli, NCTC29212, 24 h, read-out: MIC E. coli. As for the experimental part: as §1, §2, §3
In test [5] the test system is Staphylococcus aureus ATCC 6538. Put plainly: MIC determination. As to conditions: Staphylococcus aureus, ATCC6538, 24 h, read-out: MIC S. aureus. The class given is cell-based. As for the experimental part:
as §1, §2, §3

Test [6] deals with T1, HSA (Homo sapiens, UniProt P02768).
T1 construct: purchased Sigma-Aldrich Co
T1 sequence (P02768 25-609): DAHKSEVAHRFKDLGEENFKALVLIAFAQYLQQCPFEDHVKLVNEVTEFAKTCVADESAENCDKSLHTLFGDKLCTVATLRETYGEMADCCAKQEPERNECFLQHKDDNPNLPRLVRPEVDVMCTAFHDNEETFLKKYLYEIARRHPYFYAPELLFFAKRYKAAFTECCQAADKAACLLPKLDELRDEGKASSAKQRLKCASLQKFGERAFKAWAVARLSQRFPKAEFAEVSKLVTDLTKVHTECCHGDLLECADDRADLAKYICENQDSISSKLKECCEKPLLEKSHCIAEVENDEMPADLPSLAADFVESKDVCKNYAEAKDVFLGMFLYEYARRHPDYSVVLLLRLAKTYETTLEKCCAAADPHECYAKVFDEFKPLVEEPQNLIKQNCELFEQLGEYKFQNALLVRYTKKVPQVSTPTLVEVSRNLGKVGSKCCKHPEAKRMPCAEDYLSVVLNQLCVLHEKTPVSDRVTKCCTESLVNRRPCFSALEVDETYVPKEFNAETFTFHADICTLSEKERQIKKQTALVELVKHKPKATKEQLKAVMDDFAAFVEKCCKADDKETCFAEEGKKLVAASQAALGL
The experiment in a line: Competitive HSA-fluorescence studies with warfarin and ibuprofen. The format is binding.

The test system of test [7] is EB-DNA adduct (CT DNA). Put plainly: EB-displacement from EB-DNA (fluorescence). The format is binding, calf. As to conditions: for ΔΙ/Ι0 (%) EB-DNA fluorescence quenching: [EB] = 20 μM, [DNA] = 26 μM; for kq (EB-DNA quenching constant): τo = 23 ns. As for the experimental part:
page 8: […] spectroscopy, viscosity measurements and fluorescence emission spectroscopy studies. […] UV-vis spectroscopy was used for the evaluation of the interaction of the compounds with CT DNA, and specifically the possible binding modes of the compounds to CT DNA. Control experiments with DMSO were performed and no changes in the spectra of CT DNA were observed. In order to determine the binding mode, the UV-vis spectra of the compounds were […] concentrations of CT DNA for diverse r (r = [complex]/[DNA]) values. Effective use of the changes […] compounds were calculated by the Wolfe-[…] equation (eq. […] εf) versus [DNA]: (eq. S1) where [DNA] = the concentration of DNA in base pairs, ε f= the extinction coefficient for the free compound at the corresponding λmax, εA = Aobsd/[compound] and εb= the extinction coefficient for the compound in the fully bound form. K b is given by the ratio of slope to the y intercept in plots [DNA]/(εA-εf) versus [DNA]. S3.2 CT DNA-binding studies by viscosity measurements […] presence of increasing amounts of the compounds. The experiments were executed at room temperature and the measurements are devised in a plot (η/η 0)1/3 versus r, where η = the viscosity of DNA in the presence of the compound, and η0 = the viscosity of neat DNA in buffer solution. […] In order to determine and confirm the DNA-binding mode of the compounds, a competitive study with EB as an intercalating marker is performed by fluorescence emission spectroscopy. Therefore, the EB-displacing ability of the compounds from its EB-DNA conjugate was examined. […] solution (150 mM NaCl and 15 mM trisodium citrate at pH 7.0). The potential intercalation of the compounds between the DNA-bases was studied by the addition of a certain amount of the 8 (1 picture or pasted object on this page, not shown here) page 9: compound solution into the EB-DNA adduct solution. The influence of the compounds on the EB- DNA solution was monitored through the changes of the fluorescence emission spectra at excitation wavelength (λex) at 540 nm [S6]. […] Bearing that in mind, the observed quenching of the EB-DNA solution is evidently associated to the displacement of EB from its EB-DNA adduct. The quenching efficiency (KSV) for each compound was assessed according to the Stern - Volmer equation (eq. S2) [S6]: (eq. S2) where I0 and I = the fluorescence emission intensities of EB-DNA in the absence and presence of the quencher, respectively, [Q] = the concentration of the quencher (i.e. compounds). K SV is obtained from the Stern-Volmer plots by the slope of the diagram I0/I versus [Q]. Taking τ0 = 23 ns […] M-1s-1) of the compounds can be determined according to e quation S3: KSV = kqτo (eq. S3) 9 (1 picture or pasted object on this page, not shown here)

Setting [8] is: read-out: HSA-binding constant K, Marker: Ibuprofen, ibuprofen.
Where [9] appears, read: read-out: HSA-binding constant K, Marker: Warfarin, warfarin.

pKd: −log10 of the molar value. Values joined by “and” are separate entries in the source; they are usually repeats but may differ in a detail not shown here. Equal entries are not always repeated. Where two headings read alike, the source gives them in different places.

Compound `CCN(CC)c1ccc(C=O)c(O)c1` [4-Et2N-saloH, 4-diethylamino-salicylaldehyde, reference compound] showed an ABTS% in test [1] of 25.84 ± 0.34%. For the same compound, the MIC was > 200 µg/mL and > 1040 µM in test [2]; > 200 µg/mL and > 1040 µM in test [3]; > 200 µg/mL and > 1040 µM in test [4]; > 200 µg/mL and > 1040 µM in test [5]. The pKd in test [6] is 5.61; in test [6] (setting [8]), 4.62; in test [6] (setting [9]) it was 5.36. The “KSV (Stern–Volmer constant), EB-DNA” value in test [7] is 2.89 (±0.07) × 10^4 M^−1. Further, in test [7], the “ΔΙ/Ι0 (%) EB-DNA fluorescence quenching” value is recorded as 43.4%. In addition, in test [7], the “kq (EB-DNA quenching constant)” value is on record as 1.25 (±0.03) × 10^12 M^−1s^−1.
The compound `COc1ccc(C=O)c(O)c1` [4-OMe-saloH, 4-methoxy-salicylaldehyde, reference compound] had an ABTS% in test [1] of 40.83 ± 0.44%. Also, the MIC in test [2] was > 200 µg/mL and > 1310 µM; in test [3] it was > 200 µg/mL and > 1310 µM; in test [4], > 200 µg/mL and > 1310 µM; in test [5], > 200 µg/mL and > 1310 µM. Besides, the pKd is 4.99 in test [6], 4.67 in test [6] (setting [8]) and 4.22 in test [6] (setting [9]).
In test [1], `O=Cc1cc(F)ccc1O` [5-F-saloH, 5-fluoro-salicylaldehyde, reference compound] came in with an ABTS% of 19.57 ± 0.58%. The MIC in test [2] was 200 µg/mL and 1430 µM; in test [3], 200 µg/mL and 1430 µM; in test [4], 200 µg/mL and 1430 µM; in test [5] it was 200 µg/mL and 1430 µM. Also, the pKd in test [6] was 4.67; in test [6] (setting [8]), 4.79; in test [6] (setting [9]) it was 4.48. In addition, the “KSV (Stern–Volmer constant), EB-DNA” value in test [7] was 3.79 (±0.11) × 10^4 M^−1. In addition, the “ΔΙ/Ι0 (%) EB-DNA fluorescence quenching” value in test [7] is listed as 51.3%. In test [7], the “kq (EB-DNA quenching constant)” value was 1.73 (±0.05) × 10^12 M^−1s^−1.

Source of the values: article PMC9323974, “Palladium(II) Complexes of Substituted Salicylaldehydes: Synthesis, Characterization and Investigation of Their Biological Profile” (Pharmaceuticals, 2022).
